Source: paper PMC12329717 (Biochemistry, 2025)

What was measured:
HnoK = biological target: T1, HnoK (Caulobacter vibrioides, UniProt A0A0H3CAQ8, D543N); assay: […] autophosphorylation, SDS-PAGE autoradiography; assay type: biochemical; conditions: 1 mM ATP with [gamma-32P]ATP, Mn2+ or Mg2+ 5 mM (Mn2+ preferred), room temperature; MBP fusion; labelled compound
T1 construct: gene CCNA_03088; N-terminal 6-His version also tested; E. coli BL21(DE3); homodimer

[1] = biological target: Caulobacter crescentus histidine kinase HnoK, as purified (Caulobacter crescentus); assay: SEC; HiPrep Sephacryl S-200 HR column in 20 mM Tris, pH 8, 150 mM NaCl; elution volumes at the last step of purification

T1 sequence (A0A0H3CAQ8 entry or part of it D543N): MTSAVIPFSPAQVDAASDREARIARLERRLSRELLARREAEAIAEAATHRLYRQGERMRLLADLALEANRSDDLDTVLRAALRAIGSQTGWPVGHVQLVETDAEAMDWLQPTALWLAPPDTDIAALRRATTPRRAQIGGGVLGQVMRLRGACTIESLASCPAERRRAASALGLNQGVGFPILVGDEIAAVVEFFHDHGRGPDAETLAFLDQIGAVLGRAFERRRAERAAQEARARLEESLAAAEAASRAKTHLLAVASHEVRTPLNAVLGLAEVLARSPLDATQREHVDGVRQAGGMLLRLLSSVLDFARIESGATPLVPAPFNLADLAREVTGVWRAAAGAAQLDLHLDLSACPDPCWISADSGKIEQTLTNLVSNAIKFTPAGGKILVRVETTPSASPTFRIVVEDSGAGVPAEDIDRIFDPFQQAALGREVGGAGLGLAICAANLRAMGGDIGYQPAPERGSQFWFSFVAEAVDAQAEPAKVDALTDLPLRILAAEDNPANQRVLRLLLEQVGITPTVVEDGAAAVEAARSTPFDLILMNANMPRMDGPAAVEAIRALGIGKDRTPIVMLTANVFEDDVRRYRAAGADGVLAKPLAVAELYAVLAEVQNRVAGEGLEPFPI

stoichiometry N [1]	Compound	32P autophosphorylation, SDS-PAGE autoradiography (HnoK)
–	Nc1ncnc2c1ncn2[C@@H]1O[C@H](COP(=O)(O)OP(=O)(O)OP(=O)(O)O)[C@@H](O)[C@H]1O [ATP]	D543N HnoK-MBP was used for the autophosphorylation assays shown
2	Caulobacter crescentus histidine kinase HnoK, as purified (from UniProt A0A0H3CAQ8 1-624) (enzyme)	–
